Columns and labels:
Test in all cases: Kinase inhibitory activity profiling of RI-962@10 µM (406 kinases, Eurofins)
Format in all cases: biochemical
[1] = target: panel of human kinases (kinase named in endpoint) (Homo sapiens, UniProt Q06418); conditions: 10 µM; read-out: Activity (%), Rse(h)
Procedure: (§1) In vitro kinase activity assays were conducted through the Kinase Profiling Services provided by Eurofins (Eurofins, France). The protocol for the RIPK1 assay is briefly described as follows (Protocols for other kinases are very similar and can be found in http://www.eurofins.com/pharmadiscovery). RIPK1 kinase was incubated with the test compound in assay buffer containing 8 mM MOPS (pH 7.0), 0.2 mM EDTA, 250 μM […], 10 mM magnesium acetate, and 10 μM [γ-33P]-ATP for 15 min at room temperature. The reaction was initiated by the addition of the Mg/ATP mixture. After incubation for 40 min at room temperature, and the reaction was stopped by the addition of 3% phosphoric acid. A 10 μL portion of the reaction mixture was then spotted onto a P30 filter mat and washed four times for 4 min in 0.425% phosphoric acid and once in methanol prior to drying and scintillation counting.

[2] = target: panel of human kinases (kinase named in endpoint) (Homo sapiens, UniProt P29323); conditions: 10 µM; read-out: Activity (%), EphB2(h)
Chain of panel of human kinases (kinase named in endpoint) (Homo sapiens, UniProt P29323) (P29323 19-1055): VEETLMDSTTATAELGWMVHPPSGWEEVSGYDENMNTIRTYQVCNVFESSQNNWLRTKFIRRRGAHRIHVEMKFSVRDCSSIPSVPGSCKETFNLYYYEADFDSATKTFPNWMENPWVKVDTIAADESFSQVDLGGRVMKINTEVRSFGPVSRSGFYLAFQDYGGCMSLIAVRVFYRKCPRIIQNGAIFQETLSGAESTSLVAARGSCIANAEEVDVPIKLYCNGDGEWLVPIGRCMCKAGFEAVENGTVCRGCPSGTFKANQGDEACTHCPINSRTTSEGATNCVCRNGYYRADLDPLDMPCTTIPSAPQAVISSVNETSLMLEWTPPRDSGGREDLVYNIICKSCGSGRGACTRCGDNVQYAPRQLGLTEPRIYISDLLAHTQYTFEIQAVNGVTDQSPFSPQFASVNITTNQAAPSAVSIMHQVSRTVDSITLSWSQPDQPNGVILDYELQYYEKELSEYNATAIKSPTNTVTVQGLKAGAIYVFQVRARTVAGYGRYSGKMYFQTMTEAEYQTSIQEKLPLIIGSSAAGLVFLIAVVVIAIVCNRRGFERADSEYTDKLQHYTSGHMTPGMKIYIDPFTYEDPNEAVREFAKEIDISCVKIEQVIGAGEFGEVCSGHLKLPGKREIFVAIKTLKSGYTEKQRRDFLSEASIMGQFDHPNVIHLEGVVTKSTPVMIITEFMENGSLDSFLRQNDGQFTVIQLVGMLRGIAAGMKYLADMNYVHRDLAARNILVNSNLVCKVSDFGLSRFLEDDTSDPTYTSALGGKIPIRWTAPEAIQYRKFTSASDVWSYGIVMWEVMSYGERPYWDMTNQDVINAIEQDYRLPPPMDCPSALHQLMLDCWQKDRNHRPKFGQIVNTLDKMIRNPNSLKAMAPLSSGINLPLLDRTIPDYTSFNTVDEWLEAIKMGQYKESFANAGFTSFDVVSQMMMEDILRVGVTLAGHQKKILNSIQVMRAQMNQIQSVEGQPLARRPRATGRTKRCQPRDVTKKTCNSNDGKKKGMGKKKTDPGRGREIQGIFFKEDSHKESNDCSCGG
Procedure: as §1

[3] = target: panel of human kinases (kinase named in endpoint) (Homo sapiens, UniProt P49841); conditions: 10 µM; read-out: Activity (%), GSK3β(h)
Procedure: as §1

[4] = target: panel of human kinases (kinase named in endpoint) (Homo sapiens, UniProt P19784); conditions: 10 µM; read-out: Activity (%), CK2α2(h)
Procedure: as §1

[5] = target: panel of human kinases (kinase named in endpoint) (Homo sapiens, UniProt P36888); conditions: 10 µM; read-out: Activity (%), Flt3(h)
Procedure: as §1

[6] = target: panel of human kinases (kinase named in endpoint) (Homo sapiens, UniProt Q02156); conditions: 10 µM; read-out: Activity (%), PKCε(h)
Procedure: as §1

[7] = target: panel of human kinases (kinase named in endpoint) (Homo sapiens, UniProt Q9H2K8); conditions: 10 µM; read-out: Activity (%), TAO3(h)
Procedure: as §1

[8] = target: panel of human kinases (kinase named in endpoint) (Homo sapiens, UniProt Q8NG66); conditions: 10 µM; read-out: Activity (%), NEK11(h)
Procedure: as §1

[9] = target: panel of human kinases (kinase named in endpoint) (Homo sapiens, UniProt Q99683); conditions: 10 µM; read-out: Activity (%), ASK1(h)
Procedure: as §1

[10] = target: panel of human kinases (kinase named in endpoint) (Homo sapiens, UniProt P00533, T790M); conditions: 10 µM; read-out: Activity (%), EGFR(T790M)(h)
Procedure: as §1

[11] = target: panel of human kinases (kinase named in endpoint) (Homo sapiens, UniProt P54753); conditions: 10 µM; read-out: Activity (%), EphB3(h)
Procedure: as §1

[12] = target: panel of human kinases (kinase named in endpoint) (Homo sapiens, UniProt Q2M2I8); conditions: 10 µM; read-out: Activity (%), AAK1(h)
Chain of panel of human kinases (kinase named in endpoint) (Homo sapiens, UniProt Q2M2I8) (Q2M2I8 whole entry): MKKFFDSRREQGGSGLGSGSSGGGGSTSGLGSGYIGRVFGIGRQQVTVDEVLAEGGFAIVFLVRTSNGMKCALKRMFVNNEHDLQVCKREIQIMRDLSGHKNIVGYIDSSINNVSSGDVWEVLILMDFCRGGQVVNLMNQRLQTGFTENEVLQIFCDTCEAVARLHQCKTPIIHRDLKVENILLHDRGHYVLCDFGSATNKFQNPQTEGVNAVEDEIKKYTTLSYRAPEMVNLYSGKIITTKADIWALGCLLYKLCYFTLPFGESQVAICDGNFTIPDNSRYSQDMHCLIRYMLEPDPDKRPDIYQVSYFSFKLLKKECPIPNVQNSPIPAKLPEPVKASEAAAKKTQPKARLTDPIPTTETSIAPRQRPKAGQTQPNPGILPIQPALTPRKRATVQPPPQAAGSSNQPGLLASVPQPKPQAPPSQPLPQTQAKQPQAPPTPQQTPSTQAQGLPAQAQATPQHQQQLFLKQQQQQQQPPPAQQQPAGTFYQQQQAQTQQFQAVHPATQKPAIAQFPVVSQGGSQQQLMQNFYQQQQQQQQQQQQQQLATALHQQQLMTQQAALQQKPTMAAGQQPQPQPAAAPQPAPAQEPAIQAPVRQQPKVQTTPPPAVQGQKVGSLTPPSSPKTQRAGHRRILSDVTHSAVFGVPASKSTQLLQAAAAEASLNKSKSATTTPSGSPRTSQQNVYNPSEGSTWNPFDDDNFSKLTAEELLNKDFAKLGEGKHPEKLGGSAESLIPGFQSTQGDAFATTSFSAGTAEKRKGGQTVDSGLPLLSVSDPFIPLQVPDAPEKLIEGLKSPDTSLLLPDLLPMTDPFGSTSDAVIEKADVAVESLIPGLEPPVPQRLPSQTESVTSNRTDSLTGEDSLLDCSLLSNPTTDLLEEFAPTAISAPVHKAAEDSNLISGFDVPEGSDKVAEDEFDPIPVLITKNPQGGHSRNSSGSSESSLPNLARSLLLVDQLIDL
Procedure: as §1

[13] = target: panel of human kinases (kinase named in endpoint) (Homo sapiens, UniProt Q9NWZ3); conditions: 10 µM; read-out: Activity (%), IRAK4(h)
Procedure: as §1

[14] = target: panel of human kinases (kinase named in endpoint) (Homo sapiens, UniProt Q16654); conditions: 10 µM; read-out: Activity (%), PDHK4(h)
Procedure: as §1

[15] = target: panel of human kinases (kinase named in endpoint) (Homo sapiens, UniProt O15146); conditions: 10 µM; read-out: Activity (%), MuSK(h)
Chain of panel of human kinases (kinase named in endpoint) (Homo sapiens, UniProt O15146) (O15146 24-869): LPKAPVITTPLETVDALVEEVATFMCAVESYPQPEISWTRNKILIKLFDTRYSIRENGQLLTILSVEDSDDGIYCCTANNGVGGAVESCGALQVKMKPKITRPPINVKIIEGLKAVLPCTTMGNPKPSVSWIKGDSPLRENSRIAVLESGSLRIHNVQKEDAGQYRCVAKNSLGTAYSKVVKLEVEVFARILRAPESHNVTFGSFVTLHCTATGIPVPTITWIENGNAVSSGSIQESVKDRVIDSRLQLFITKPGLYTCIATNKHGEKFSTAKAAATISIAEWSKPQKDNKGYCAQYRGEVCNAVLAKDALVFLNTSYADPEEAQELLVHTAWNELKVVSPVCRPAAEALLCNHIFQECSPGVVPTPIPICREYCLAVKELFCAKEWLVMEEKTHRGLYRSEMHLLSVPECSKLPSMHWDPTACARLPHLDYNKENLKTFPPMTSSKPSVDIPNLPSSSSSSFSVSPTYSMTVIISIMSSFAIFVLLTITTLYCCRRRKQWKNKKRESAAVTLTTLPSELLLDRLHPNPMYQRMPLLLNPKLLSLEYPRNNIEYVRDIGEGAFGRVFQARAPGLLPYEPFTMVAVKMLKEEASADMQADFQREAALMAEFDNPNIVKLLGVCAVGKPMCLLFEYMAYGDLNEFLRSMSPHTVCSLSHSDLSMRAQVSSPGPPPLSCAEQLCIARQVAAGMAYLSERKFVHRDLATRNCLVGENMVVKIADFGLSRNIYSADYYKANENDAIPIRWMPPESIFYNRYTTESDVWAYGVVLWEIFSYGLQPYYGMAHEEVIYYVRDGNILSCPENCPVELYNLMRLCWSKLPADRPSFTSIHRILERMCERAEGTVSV
Procedure: as §1

[16] = target: panel of human kinases (kinase named in endpoint) (Homo sapiens, UniProt Q6SA08); conditions: 10 µM; read-out: Activity (%), TSSK4(h)
Chain of panel of human kinases (kinase named in endpoint) (Homo sapiens, UniProt Q6SA08) (Q6SA08 whole entry): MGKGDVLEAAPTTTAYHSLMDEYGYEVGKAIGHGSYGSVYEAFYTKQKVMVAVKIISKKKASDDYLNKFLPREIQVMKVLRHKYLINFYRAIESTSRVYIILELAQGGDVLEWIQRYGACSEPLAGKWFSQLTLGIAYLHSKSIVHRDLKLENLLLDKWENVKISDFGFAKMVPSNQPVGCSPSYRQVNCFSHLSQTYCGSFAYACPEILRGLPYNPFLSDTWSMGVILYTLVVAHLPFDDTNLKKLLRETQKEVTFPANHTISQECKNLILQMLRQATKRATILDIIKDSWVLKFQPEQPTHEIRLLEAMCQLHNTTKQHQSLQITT
Procedure: as §1

[17] = target: panel of human kinases (kinase named in endpoint) (Homo sapiens, UniProt P00519, Y253F); conditions: 10 µM; read-out: Activity (%), Abl(Y253F)(h)
Procedure: as §1

[18] = target: panel of human kinases (kinase named in endpoint) (Homo sapiens, UniProt P29376); conditions: 10 µM; read-out: Activity (%), LTK(h)
Procedure: as §1

[19] = target: panel of human kinases (kinase named in endpoint) (Homo sapiens, UniProt Q15375); conditions: 10 µM; read-out: Activity (%), EphA7(h)
Procedure: as §1

[20] = target: panel of human kinases (kinase named in endpoint) (Homo sapiens, UniProt P35916); conditions: 10 µM; read-out: Activity (%), Flt4(h)
Procedure: as §1

[21] = target: panel of human kinases (kinase named in endpoint) (Homo sapiens, UniProt P06241); conditions: 10 µM; read-out: Activity (%), Fyn(h)
Chain of panel of human kinases (kinase named in endpoint) (Homo sapiens, UniProt P06241) (P06241 whole entry): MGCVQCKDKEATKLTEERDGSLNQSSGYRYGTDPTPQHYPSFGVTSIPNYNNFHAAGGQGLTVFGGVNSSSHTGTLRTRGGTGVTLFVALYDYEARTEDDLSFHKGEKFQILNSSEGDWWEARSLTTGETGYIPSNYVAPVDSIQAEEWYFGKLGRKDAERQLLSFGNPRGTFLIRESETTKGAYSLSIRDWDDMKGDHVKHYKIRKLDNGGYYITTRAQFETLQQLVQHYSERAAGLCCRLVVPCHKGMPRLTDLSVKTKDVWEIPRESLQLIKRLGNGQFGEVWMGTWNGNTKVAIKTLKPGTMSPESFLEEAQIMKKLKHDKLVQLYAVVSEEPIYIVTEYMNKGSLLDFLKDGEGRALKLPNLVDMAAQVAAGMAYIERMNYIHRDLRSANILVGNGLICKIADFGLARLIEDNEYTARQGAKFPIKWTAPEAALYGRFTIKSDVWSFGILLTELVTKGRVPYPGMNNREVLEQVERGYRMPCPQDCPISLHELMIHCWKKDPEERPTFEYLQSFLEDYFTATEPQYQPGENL
Procedure: as §1

[22] = target: panel of human kinases (kinase named in endpoint) (Homo sapiens, UniProt P04629); conditions: 10 µM; read-out: Activity (%), TrkA(h)
Procedure: as §1

[23] = target: panel of human kinases (kinase named in endpoint) (Homo sapiens, UniProt Q9BYT3); conditions: 10 µM; read-out: Activity (%), STK33(h)
Chain of panel of human kinases (kinase named in endpoint) (Homo sapiens, UniProt Q9BYT3) (Q9BYT3 whole entry): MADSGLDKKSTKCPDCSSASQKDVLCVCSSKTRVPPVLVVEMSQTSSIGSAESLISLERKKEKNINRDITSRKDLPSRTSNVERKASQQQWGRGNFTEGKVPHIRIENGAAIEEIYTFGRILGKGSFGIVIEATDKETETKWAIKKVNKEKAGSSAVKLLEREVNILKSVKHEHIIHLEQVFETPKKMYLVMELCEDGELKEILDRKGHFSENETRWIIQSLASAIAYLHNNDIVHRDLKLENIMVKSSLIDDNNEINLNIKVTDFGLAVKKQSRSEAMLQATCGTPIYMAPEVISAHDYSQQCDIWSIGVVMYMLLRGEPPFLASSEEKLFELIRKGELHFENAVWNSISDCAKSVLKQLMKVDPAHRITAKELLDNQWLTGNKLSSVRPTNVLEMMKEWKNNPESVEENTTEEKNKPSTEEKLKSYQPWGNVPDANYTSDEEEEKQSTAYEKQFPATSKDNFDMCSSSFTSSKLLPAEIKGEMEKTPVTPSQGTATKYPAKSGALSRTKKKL
Procedure: as §1

[24] = target: panel of human kinases (kinase named in endpoint) (Homo sapiens, UniProt Q16539); conditions: 10 µM; read-out: Activity (%), SAPK2a(h)
Procedure: as §1

[25] = target: panel of human kinases (kinase named in endpoint) (Homo sapiens, UniProt Q00534); conditions: 10 µM; read-out: Activity (%), CDK6/cyclinD3(h)
Procedure: as §1

[26] = target: panel of human kinases (kinase named in endpoint) (Homo sapiens, UniProt P35626); conditions: 10 µM; read-out: Activity (%), GRK3(h)
Procedure: as §1

Chain of panel of human kinases (kinase named in endpoint) (Homo sapiens, UniProt Q06418) (Q06418 41-890): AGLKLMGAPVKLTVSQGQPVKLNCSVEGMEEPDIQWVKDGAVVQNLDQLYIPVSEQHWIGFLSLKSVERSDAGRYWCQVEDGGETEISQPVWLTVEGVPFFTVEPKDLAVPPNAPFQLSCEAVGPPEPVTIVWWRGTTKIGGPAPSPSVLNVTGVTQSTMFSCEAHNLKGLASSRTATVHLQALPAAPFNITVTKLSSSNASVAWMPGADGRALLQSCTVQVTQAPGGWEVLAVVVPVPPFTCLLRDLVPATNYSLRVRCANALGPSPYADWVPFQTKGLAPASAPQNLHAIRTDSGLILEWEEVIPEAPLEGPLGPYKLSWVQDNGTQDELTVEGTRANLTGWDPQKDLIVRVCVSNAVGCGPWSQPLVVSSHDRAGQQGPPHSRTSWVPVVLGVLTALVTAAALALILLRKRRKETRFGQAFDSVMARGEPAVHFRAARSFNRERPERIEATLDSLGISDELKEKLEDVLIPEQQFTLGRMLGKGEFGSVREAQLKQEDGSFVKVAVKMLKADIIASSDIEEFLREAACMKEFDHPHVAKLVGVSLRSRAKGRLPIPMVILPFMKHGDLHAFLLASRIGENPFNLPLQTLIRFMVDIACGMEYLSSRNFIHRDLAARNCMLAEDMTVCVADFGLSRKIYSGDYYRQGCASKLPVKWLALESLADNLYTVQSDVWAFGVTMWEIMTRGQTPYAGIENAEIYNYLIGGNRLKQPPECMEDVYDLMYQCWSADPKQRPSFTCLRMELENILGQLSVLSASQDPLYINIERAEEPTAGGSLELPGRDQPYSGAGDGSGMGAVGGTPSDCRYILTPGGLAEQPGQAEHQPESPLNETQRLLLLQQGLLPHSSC

SMILES: CC(C)C(=O)Nc1nc2cc(-c3ccc4c(c3)c(C(=O)NC(C)c3ccccc3)cn4C)ccn2n1 (centres unmarked) [RI-962]
- activity at 10 µM [1]: 108%
- activity at 10 µM [2]: 73%
- activity at 10 µM [3]: 111%
- activity at 10 µM [4]: 85%
- activity at 10 µM [5]: 87%
- activity at 10 µM [6]: 99%
- activity at 10 µM [7]: 86%
- activity at 10 µM [8]: 89%
- activity at 10 µM [9]: 97%
- activity at 10 µM [10]: 119%
- activity at 10 µM [11]: 77%
- activity at 10 µM [12]: 106%
- activity at 10 µM [13]: 79%
- activity at 10 µM [14]: 75%
- activity at 10 µM [15]: 52%
- activity at 10 µM [16]: 104%
- activity at 10 µM [17]: 102%
- activity at 10 µM [18]: 100%
- activity at 10 µM [19]: 100%
- activity at 10 µM [20]: 86%
- activity at 10 µM [21]: 107%
- activity at 10 µM [22]: 64%
- activity at 10 µM [23]: 85%
- activity at 10 µM [24]: 118%
- activity at 10 µM [25]: 92%
- activity at 10 µM [26]: 92%

— publication PMC9653409, “Generative deep learning enables the discovery of a potent and selective RIPK1 inhibitor” (Nature Communications, 2022)
